“And” between values parts separate entries of the source, which are not always exact repeats. Equal entries are not always repeated.
Test system: chronic hepatitis B with hepatic fibrosis
Assay: Phase II clinical study: hepatic fibrosis Ishak score by liver biopsy, before and after 52 weeks of treatment on entecavir basic treatment
Format: in vivo, human
Settings: for Ishak score 4 points, n(%) / Ishak score 5 points, n(%) / Ishak score 6 points, n(%) / Hepatic fibrosis Ishak score, Mean (SD) / Hepatic fibrosis Ishak score, Median / Ishak score 0 point, n(%) / Ishak score 1 point, n(%) / Ishak score 2 points, n(%) / Ishak score 3 points, n(%) / Progressive Ishak score (increases by ≥1 compared with the baseline) / Reversed Ishak score (decreases by ≥1 point compared with the baseline) / Stable Ishak score (unchanged compared with the baseline): 52 weeks of treatment; for Rate difference (B-C) % and 95% CI, Ishak score decreased by ≥1: 360 mg group minus 180 mg group; for Rate difference (B-C) % and 95% CI, Ishak score decreased by ≥1 / Rate difference (B-D) % and 95% CI, Ishak score decreased by ≥1 / Rate difference (A-B) % and 95% CI, Ishak score decreased by ≥1 / Rate difference (A-C) % and 95% CI, Ishak score decreased by ≥1 / Rate difference (A-D) % and 95% CI, Ishak score decreased by ≥1: 52 weeks; for Rate difference (B-D) % and 95% CI, Ishak score decreased by ≥1: 360 mg group minus 270 mg group; for Rate difference (A-C) % and 95% CI, Ishak score decreased by ≥1: placebo group minus 180 mg group; for Rate difference (A-D) % and 95% CI, Ishak score decreased by ≥1: placebo group minus 270 mg group
Procedure: This is a randomized, double-blind, placebo-controlled, multicenter, and dose-finding phase II clinical study with foundational treatment. In the clinical trial, three different dose test groups and a placebo control group were set on the basis of the entecavir capsule antiviral treatment, and the planned sample amount of each group was 60 cases, totaling 240 cases. The three dose test groups were 180 mg group, 270 mg group, and 360 mg group, respectively. […]

[1] = 270 mg group, PPS, baseline Ishak score ≥3
[2] = 270 mg group, PPS, all subjects
[3] = 270 mg group, PPS, screening period-follow-up 15 (52 weeks), baseline Ishak score ≥3
[4] = 360 mg group, FAS, 52 weeks of treatment vs baseline, all subjects
[5] = 360 mg group, FAS, all subjects
[6] = 360 mg group, FAS, baseline Ishak score ≥3
[7] = 360 mg group, FAS, screening period-follow-up 15 (52 weeks), baseline Ishak score ≥3
[8] = 360 mg group, PPS, 52 weeks of treatment vs baseline, all subjects
[9] = 360 mg group, PPS, all subjects
[10] = 360 mg group, PPS, baseline Ishak score ≥3
[11] = 360 mg group, PPS, screening period-follow-up 15 (52 weeks), baseline Ishak score ≥3
[12] = Group B/C/D combined, FAS, baseline Ishak score ≥2
[13] = Group B/C/D combined, FAS, screening period-follow-up 15 (52 weeks), baseline Ishak score ≥2
[14] = Group B/C/D combined, PPS, baseline Ishak score ≥2
[15] = Group B/C/D combined, PPS, screening period-follow-up 15 (52 weeks), baseline Ishak score ≥2

## Cc1ccc(=O)n(-c2ccc(O)cc2)c1 [hydronidone]
[1]
  Ishak score 4 points, n(%): 5(20.00) n(%)
  Ishak score 5 points, n(%): 5(20.00) n(%)
  Ishak score 6 points, n(%): 2(8.00) n(%)
[2]
  Ishak score change, Baseline-52 weeks of treatment, Mean (SD): 0.91(1.15)
  Ishak score change, Baseline-52 weeks of treatment, Median: 1.00
[3]
  Ishak score decreased by <1, n(%): 7(28.00) n(%)
  Ishak score decreased by ≥1, n(%): 18(72.00) n(%)
FAS, all subjects
  Rate difference (B-C) % and 95% CI, Ishak score decreased by ≥1: 3.43(−17.12, 23.60) %
  Rate difference (B-D) % and 95% CI, Ishak score decreased by ≥1: −12.20(−32.01, 9.10) %
  Rate difference (A-C) % and 95% CI, Ishak score decreased by ≥1: −14.89(−33.32, 4.99) %
  Rate difference (A-D) % and 95% CI, Ishak score decreased by ≥1: −30.52% and −30.52(−48.12, −9.50) %
FAS, baseline Ishak score ≥3
  Rate difference (B-C) % and 95% CI, Ishak score decreased by ≥1: 4.45(−20.88, 29.28) %
  Rate difference (B-D) % and 95% CI, Ishak score decreased by ≥1: −5.67(−29.01, 18.67) %
  Rate difference (A-C) % and 95% CI, Ishak score decreased by ≥1: −18.17(−42.04, 9.11) %
  Rate difference (A-D) % and 95% CI, Ishak score decreased by ≥1: −28.29(−50.04, −1.45) %
PPS, all subjects
  Rate difference (B-C) % and 95% CI, Ishak score decreased by ≥1: 5.72(−16.89, 27.53) %
  Rate difference (B-D) % and 95% CI, Ishak score decreased by ≥1: −12.77(−33.83, 9.98) %
  Rate difference (A-C) % and 95% CI, Ishak score decreased by ≥1: −21.03(−40.20, 0.26) %
  Rate difference (A-D) % and 95% CI, Ishak score decreased by ≥1: −39.52% and −39.52(−56.83, −17.26) %
PPS, baseline Ishak score ≥3
  Rate difference (B-C) % and 95% CI, Ishak score decreased by ≥1: 8.91(−17.46, 34.07) %
  Rate difference (B-D) % and 95% CI, Ishak score decreased by ≥1: −4.00(−27.91, 20.54) %
  Rate difference (A-C) % and 95% CI, Ishak score decreased by ≥1: −23.09(−46.75, 5.09) %
  Rate difference (A-D) % and 95% CI, Ishak score decreased by ≥1: −36.00(−56.89, −8.38) %
[4]
  Ishak score decreased by <1, n(%): 23(56.10) n(%)
  Ishak score decreased by ≥1, n(%): 18 (43.90%) n(%) and 18(43.90) n(%)
[5]
  Hepatic fibrosis Ishak score, Mean (SD): 2.83(1.45)
  Hepatic fibrosis Ishak score, Median: 3.00
  Ishak score 0 point, n(%): 0(0.00) n(%)
  Ishak score 1 point, n(%): 10(24.39) n(%)
  Ishak score 2 points, n(%): 8(19.51) n(%)
  Ishak score 3 points, n(%): 9(21.95) n(%)
  Ishak score 4 points, n(%): 8(19.51) n(%)
  Ishak score 5 points, n(%): 5(12.20) n(%)
  Ishak score 6 points, n(%): 1(2.44) n(%)
  Progressive Ishak score (increases by ≥1 compared with the baseline): 5 (12.20%) n(%) and 5(12.20) n(%)
  Reversed Ishak score (decreases by ≥1 point compared with the baseline): 18(43.90) n(%)
  Stable Ishak score (unchanged compared with the baseline): 18 (43.90%) n(%) and 18(43.90) n(%)
  Ishak score change, Baseline-52 weeks of treatment, Mean (SD): 0.56(1.25)
  Ishak score change, Baseline-52 weeks of treatment, Median: 0.00
[6]
  Ishak score 0 point, n(%): 0(0.00) n(%)
  Ishak score 1 point, n(%): 4(13.79) n(%)
  Ishak score 2 points, n(%): 4(13.79) n(%)
  Ishak score 3 points, n(%): 8(27.59) n(%)
  Ishak score 4 points, n(%): 7(24.14) n(%)
  Ishak score 5 points, n(%): 5(17.24) n(%)
  Ishak score 6 points, n(%): 1(3.45) n(%)
[7]
  Ishak score decreased by <1, n(%): 12(41.38) n(%)
  Ishak score decreased by ≥1, n(%): 17(58.62) n(%)
[8]
  Ishak score decreased by <1, n(%): 16(47.06) n(%)
  Ishak score decreased by ≥1, n(%): 18 (52.94%) n(%) and 18(52.94) n(%)
[9]
  Hepatic fibrosis Ishak score, Mean (SD): 2.82(1.49)
  Hepatic fibrosis Ishak score, Median: 3.00
  Ishak score 0 point, n(%): 0(0.00) n(%)
  Ishak score 1 point, n(%): 9(26.47) n(%)
  Ishak score 2 points, n(%): 6(17.65) n(%)
  Ishak score 3 points, n(%): 7(20.59) n(%)
  Ishak score 4 points, n(%): 7(20.59) n(%)
  Ishak score 5 points, n(%): 4(11.76) n(%)
  Ishak score 6 points, n(%): 1(2.94) n(%)
  Progressive Ishak score (increases by ≥1 compared with the baseline): 5 (14.71%) n(%) and 5(14.71) n(%)
  Reversed Ishak score (decreases by ≥1 point compared with the baseline): 18(52.94) n(%)
  Stable Ishak score (unchanged compared with the baseline): 11 (32.35%) n(%) and 11(32.35) n(%)
  Ishak score change, Baseline-52 weeks of treatment, Mean (SD): 0.68(1.34)
  Ishak score change, Baseline-52 weeks of treatment, Median: 1.00
[10]
  Ishak score 0 point, n(%): 0(0.00) n(%)
  Ishak score 1 point, n(%): 4(16.00) n(%)
  Ishak score 2 points, n(%): 4(16.00) n(%)
  Ishak score 3 points, n(%): 6(24.00) n(%)
  Ishak score 4 points, n(%): 6(24.00) n(%)
  Ishak score 5 points, n(%): 4(16.00) n(%)
  Ishak score 6 points, n(%): 1(4.00) n(%)
[11]
  Ishak score decreased by <1, n(%): 8(32.00) n(%)
  Ishak score decreased by ≥1, n(%): 17(68.00) n(%)
Group A vs Group B/C/D combined, FAS, baseline Ishak score ≥2
  Rate difference (A-B) % and 95% CI, Ishak score decreased by ≥1: −24.09(−40.50, −4.45) %
Group A vs Group B/C/D combined, PPS, baseline Ishak score ≥2
  Rate difference (A-B) % and 95% CI, Ishak score decreased by ≥1: −32.29(−48.91, −12.08) %
[12]
  Ishak score 0 point, n(%): 5(4.95) n(%)
  Ishak score 1 point, n(%): 20(19.80) n(%)
  Ishak score 2 points, n(%): 17(16.83) n(%)
  Ishak score 3 points, n(%): 18(17.82) n(%)
  Ishak score 4 points, n(%): 17(16.83) n(%)
  Ishak score 5 points, n(%): 17(16.83) n(%)
  Ishak score 6 points, n(%): 7(6.93) n(%)
[13]
  Ishak score decreased by <1, n(%): 43(42.57) n(%)
  Ishak score decreased by ≥1, n(%): 58(57.43) n(%)
[14]
  Ishak score 0 point, n(%): 5(5.75) n(%)
  Ishak score 1 point, n(%): 20(22.99) n(%)
  Ishak score 2 points, n(%): 12(13.79) n(%)
  Ishak score 3 points, n(%): 14(16.09) n(%)
  Ishak score 4 points, n(%): 16(18.39) n(%)
  Ishak score 5 points, n(%): 14(16.09) n(%)
  Ishak score 6 points, n(%): 6(6.90) n(%)
[15]
  Ishak score decreased by <1, n(%): 29(33.33) n(%)
  Ishak score decreased by ≥1, n(%): 58(66.67) n(%)
Placebo group minus 360 mg group, FAS, all subjects
  Rate difference (A-B) % and 95% CI, Ishak score decreased by ≥1: −18.32(−36.76, 1.96) %
Placebo group minus 360 mg group, FAS, baseline Ishak score ≥3
  Rate difference (A-B) % and 95% CI, Ishak score decreased by ≥1: −22.62(−44.98, 3.82) %
Placebo group minus 360 mg group, PPS, all subjects
  Rate difference (A-B) % and 95% CI, Ishak score decreased by ≥1: −26.75% and −26.75(−45.78, −4.75) %
Placebo group minus 360 mg group, PPS, baseline Ishak score ≥3
  Rate difference (A-B) % and 95% CI, Ishak score decreased by ≥1: −32.00(−53.61, −4.37) %
Placebo group vs 270 mg group + 360 mg group, FAS, baseline Ishak score = 6
  Rate difference (A-B) % and 95% CI, Ishak score decreased by ≥1: −65.00(−87.03, −10.74) %
Placebo group vs 270 mg group + 360 mg group, FAS, baseline Ishak score ≥3
  Rate difference (A-B) % and 95% CI, Ishak score decreased by ≥1: −25.40(−44.93, −2.00) %
Placebo group vs 270 mg group + 360 mg group, FAS, baseline Ishak score ≥4
  Rate difference (A-B) % and 95% CI, Ishak score decreased by ≥1: −23.80(−46.21, 2.59) %
Placebo group vs 270 mg group + 360 mg group, FAS, baseline Ishak score ≥5
  Rate difference (A-B) % and 95% CI, Ishak score decreased by ≥1: −15.38(−42.13, 13.79) %
Placebo group vs 270 mg group + 360 mg group, PPS, baseline Ishak score = 6
  Rate difference (A-B) % and 95% CI, Ishak score decreased by ≥1: −65.00(−87.03, −10.74) %
Placebo group vs 270 mg group + 360 mg group, PPS, baseline Ishak score ≥3
  Rate difference (A-B) % and 95% CI, Ishak score decreased by ≥1: −34.00(−53.15, −10.15) %
Placebo group vs 270 mg group + 360 mg group, PPS, baseline Ishak score ≥4
  Rate difference (A-B) % and 95% CI, Ishak score decreased by ≥1: −30.06(−51.94, −3.18) %
Placebo group vs 270 mg group + 360 mg group, PPS, baseline Ishak score ≥5
  Rate difference (A-B) % and 95% CI, Ishak score decreased by ≥1: −20.83(−47.05, 8.90) %

— patent US20240261271A1, “APPLICATION OF HYDRONIDONE IN PREPARATION OF DRUG FOR TREATING OR PREVENTING CHRONIC HEPATITIS B WITH LIVER FIBROSIS” (priority 2021, published 2024)
